Values of other authors in patent US6660297B2, “Nutritional supplement to treat macular degeneration” (Bausch & Lomb Incorporated, priority 2001, dated 2003).
Read-outs that look alike come from different tables or passages of the source.

Legend:
[1] = in vivo
[2] = 1.0 mg equal to 1 IU
[3] = in vivo; remark: listed apart in the source
macular degeneration = settings: 80 mg of zinc versus placebo
[4] = not given; remark: listed apart in the source
[5] = consumed daily
[6] = in vivo; remark: listed apart in the source

CC1=C(/C=C/C(C)=C/C=C/C(C)=C/C=C/C=C(C)/C=C/C=C(C)/C=C/C2=C(C)CCCC2(C)C)C(C)(C)CCC1 [beta-carotene]
observed risk in individuals who receive 20 mg/day (male smokers): increased risk of lung cancer | observed risk in individuals who receive 20 mg/day (men with previous myocardial infarction): increased risk of fatal coronary heart attacks | dosage level with no observed adverse effects (healthy, non-smokers): ≤ 25 mg per day | efficiency of conversion to vitamin A in the body [1]: approximately 50%

CC(=O)Oc1c(C)c(C)c2c(c1C)CC[C@@](C)(CCC[C@H](C)CCC[C@H](C)CCCC(C)C)O2 (racemic) [dl-alpha tocopheryl acetate]
level at which no adverse effects have been observed [2]: ≤ 800 mg

vitamin E
time stored vitamin E contributes to the total body pool [3]: up to one

[Zn] [zinc]
retarding macular degeneration changes (macular degeneration): significantly better than placebo | tolerability ([4]; about 200 mg per day): well tolerated | side effects ([4]; about 200 mg per day, attributable to copper deficiency): potential side effects such as anemia

O=C1O[C@H]([C@@H](O)CO)C(O)=C1O [vitamin C, Ascorbic acid]
daily intake without any known adverse effects [5]: ≥ 1,000 mg

[O]=[Zn] [zinc oxide]
tolerability in the digestive system ([4]; in vivo): well tolerated

[Cu] [copper]
effect on zinc absorption [6]: does not appear to have a deleterious effect
